Test [1] concerns the target JAK1 (recombinant purified GST-tagged catalytic domain) (Homo sapiens (Human), UniProt P23458). Put plainly: biochemical.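 Note: biochemical assay with HTRF read-out.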
Test [2] deals with JAK2 (recombinant purified GST-tagged catalytic domain) (Homo sapiens (Human), UniProt O60674). Put plainly: biochemical.

Structures are written as SMILES.

Chain of JAK2 (recombinant purified GST-tagged catalytic domain) (O60674 849-1124): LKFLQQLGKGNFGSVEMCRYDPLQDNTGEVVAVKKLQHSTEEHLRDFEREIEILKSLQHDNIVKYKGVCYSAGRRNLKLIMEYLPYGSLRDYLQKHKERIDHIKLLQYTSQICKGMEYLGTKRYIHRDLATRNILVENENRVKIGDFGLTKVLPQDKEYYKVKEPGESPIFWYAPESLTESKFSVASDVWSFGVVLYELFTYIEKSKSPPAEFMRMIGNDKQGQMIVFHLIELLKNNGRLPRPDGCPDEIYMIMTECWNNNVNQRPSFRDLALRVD
Chain of JAK1 (recombinant purified GST-tagged catalytic domain) (P23458 875-1153): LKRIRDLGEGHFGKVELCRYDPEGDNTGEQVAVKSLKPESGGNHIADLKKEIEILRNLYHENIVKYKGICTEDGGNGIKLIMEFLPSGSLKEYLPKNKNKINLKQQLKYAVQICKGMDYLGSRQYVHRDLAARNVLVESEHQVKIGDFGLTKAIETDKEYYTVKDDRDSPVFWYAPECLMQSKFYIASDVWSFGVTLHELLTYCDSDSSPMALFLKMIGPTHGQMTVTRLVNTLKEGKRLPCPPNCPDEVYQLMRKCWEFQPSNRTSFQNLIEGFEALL

As for `N#C[C@H]1C[C@@H](CF)CC[C@@H]1n1cc(C(N)=O)c(Nc2ccnc(F)c2)n1` (racemic) [Example 37, 1-[(1S,2S,4S and 1R,2R,4R)-2-Cyano-4-(fluoromethyl)cyclohexyl]-3-[(2-fluoropyridin-4-yl)amino]-1H-pyrazole-4-carboxamide], the IC50 – broadly, the point on the concentration scale where inhibition reaches its midpoint – came out at 0.8 nM in test [1] and 13 nM in test [2].
For `CS(=O)(=O)N[C@@H]1CC[C@H](n2cc(C(N)=O)c(Nc3ccc(Cl)cc3)n2)[C@@H](C#N)C1` (racemic) [Example 38-3, 3-[(4-chlorophenyl)amino]-1-{(1S,2S,4R and 1R,2R,4S)-2-cyano-4-[(methylsulfonyl)amino]cyclohexyl}-1H-pyrazole-4-carboxamide], in that order: 0.9 nM and 8 nM.
For `CS(=O)(=O)N[C@H]1CC[C@H](n2cc(C(N)=O)c(Nc3ccc(Cl)cc3)n2)[C@@H](C#N)C1` (racemic) [Example 38-4, 3-[(4-chlorophenyl)amino]-1-{(1S,2S,4R and 1R,2R,4S)-2-cyano-4-[(methylsulfonyl)amino]cyclohexyl}-1H-pyrazole-4-carboxamide], in that order: 0.5 nM and 5 nM.
For `CN([C@@H]1CC[C@H](n2cc(C(N)=O)c(Nc3ccc(Cl)cc3)n2)[C@@H](C#N)C1)S(C)(=O)=O` (racemic) [Example 38-5, 3-[(4-chlorophenyl)amino]-1-{(1S,2S,4R and 1R,2R,4S)-2-cyano-4-[methyl(methylsulfonyl)amino]cyclohexyl}-1H-pyrazole-4-carboxamide], in that order: 12 nM and 46 nM.
For the compound `CN([C@H]1CC[C@H](n2cc(C(N)=O)c(Nc3ccc(Cl)cc3)n2)[C@@H](C#N)C1)S(C)(=O)=O` (racemic) [Example 38-6, 3-[(4-chlorophenyl)amino]-1-{(1S,2S,4R and 1R,2R,4S)-2-cyano-4-[methyl(methylsulfonyl)amino]cyclohexyl}-1H-pyrazole-4-carboxamide], the IC50 in test [1] came out at 1 nM; in test [2] it was 6 nM.
Consider `N#C[C@H]1CCCC[C@@H]1n1cc(C(N)=O)c(Nc2ccc(Br)cc2)n1` (single isomer, unassigned) [Example 17-26, 3-[(4-bromophenyl)amino]-1-[(1S,2S or 1R,2R)-2-cyanocyclohexyl]-1H-pyrazole-4-carboxamide], for which the values for the IC50 in test [1] and in test [2] were 1 nM and 11 nM, respectively.
For `N#C[C@H]1CCCC[C@@H]1n1cc(C(N)=O)c(Nc2cnc3cc(F)ccc3c2)n1` (single isomer, unassigned) [Example 17-41, 1-[(1S,2S or 1R,2R)-2-cyanocyclohexyl]-3-[(7-fluoroquinolin-3-yl)amino]-1H-pyrazole-4-carboxamide], in that order: 2 nM and 16 nM.
For the compound `CC(C)(C(=O)O)c1ccc(Nc2nn([C@@H]3CCCC[C@H]3C#N)cc2C(N)=O)cc1` (single isomer, unassigned) [Example 17-43, 2-[4-({4-carbamoyl-1-[(1R,2R or 1S,2S)-2-cyanocyclohexyl]-1H-pyrazol-3-yl}amino)phenyl]-2-methylpropanoic acid], the IC50 in test [1] was found to be 0.12 nM; in test [2] it was 7 nM.
For `N#C[C@H]1CCCC[C@@H]1n1cc(C(N)=O)c(Nc2cncc(Cl)c2)n1` (single isomer, unassigned) [Example 17-47, 3-[(5-chloropyridin-3-yl)amino]-1-[(1S,2S or 1R,2R)-2-cyanocyclohexyl]-1H-pyrazole-4-carboxamide], in that order: 7 nM and 39 nM.
For `N#C[C@H]1CCCC[C@@H]1n1cc(C(N)=O)c(Nc2cnc3ccc(F)cc3c2)n1` (single isomer, unassigned) [Example 17-48, 1-[(1S,2S or 1R,2R)-2-cyanocyclohexyl]-3-[(6-fluoroquinolin-3-yl)amino]-1H-pyrazole-4-carboxamide], in that order: 2 nM and 14 nM.
For `N#C[C@H]1CCCC[C@@H]1n1cc(C(N)=O)c(Nc2ccc(Cl)c(Cl)c2)n1` (single isomer, unassigned) [Example 17-49, 1-[(1S,2S or 1R,2R)-2-cyanocyclohexyl]-3-[(3,4-dichlorophenyl)amino]-1H-pyrazole-4-carboxamide], in that order: 17 nM and 93 nM.
As to `N#C[C@H]1CCCC[C@@H]1n1cc(C(N)=O)c(Nc2ccnnc2)n1` (single isomer, unassigned) [Example 17-53, 1-[(1S,2S or 1R,2R)-2-cyanocyclohexyl]-3-(pyridazin-4-ylamino)-1H-pyrazole-4-carboxamide], the results for the IC50 in test [1] and in test [2] were 3 nM and 28 nM, respectively.
For `N#C[C@@H]1CCCC[C@H]1n1cc(C(N)=O)c(Nc2ccc(C(F)F)nc2)n1` (single isomer, unassigned) [Example 17-55, 1-[(1R,2R or 1S,2S)-2-cyanocyclohexyl]-3-{[6-(difluoromethyl)pyridin-3-yl]amino}-1H-pyrazole-4-carboxamide], the results for the IC50 in test [1] and in test [2] were 41 nM and 255 nM, respectively.
For `N#C[C@H]1CCCC[C@@H]1n1cc(C(N)=O)c(Nc2ccc(C(F)F)nc2)n1` (single isomer, unassigned) [Example 17-59, 1-[(1S,2S or 1R,2R)-2-cyanocyclohexyl]-3-{[6-(difluoromethyl)pyridin-3-yl]amino}-1H-pyrazole-4-carboxamide], in that order: 2 nM and 13 nM.
For the compound `N#C[C@H]1CCCC[C@@H]1n1cc(C(N)=O)c(Nc2cnc3ccc(Cl)cc3c2)n1` (single isomer, unassigned) [Example 17-60, 3-[(6-chloroquinolin-3-yl)amino]-1-[(1S,2S or 1R,2R)-2-cyanocyclohexyl]-1H-pyrazole-4-carboxamide], the IC50 in test [1] was 6 nM; in test [2], 23 nM.
For `N#C[C@@H]1CCCC[C@H]1n1cc(C(N)=O)c(Nc2ccc(S(=O)(=O)NCC3CC3)cc2)n1` (single isomer, unassigned) [Example 17-66, 1-[(1R,2R or 1S,2S)-2-cyanocyclohexyl]-3-({4-[(cyclopropylmethyl)sulfamoyl]phenyl}amino)-1H-pyrazole-4-carboxamide], in that order: 0.33 nM and 1 nM.
For `N#C[C@@H]1CCCC[C@H]1n1cc(C(N)=O)c(Nc2ccc(S(=O)(=O)Nc3ccccn3)cc2)n1` (single isomer, unassigned) [Example 17-67, 1-[(1R,2R or 1S,2S)-2-cyanocyclohexyl]-3-{[4-(pyridin-2-ylsulfamoyl)phenyl]amino}-1H-pyrazole-4-carboxamide], in that order: 3 nM and 9 nM.
Consider `N#C[C@@H]1CCCC[C@H]1n1cc(C(N)=O)c(Nc2ccc(S(=O)(=O)NCCN3CCOCC3)cc2)n1` (single isomer, unassigned) [Example 17-68, 1-[(1R,2R or 1S,2S)-2-cyanocyclohexyl]-3-({4-[(2-morpholin-4-ylethyl)sulfamoyl]phenyl}amino)-1H-pyrazole-4-carboxamide], for which the IC50 in test [1] was found to be 0.4 nM; in test [2] it was 1 nM.
For `N#C[C@@H]1CCCC[C@H]1n1cc(C(N)=O)c(Nc2ccc(S(=O)(=O)N3CCC(Cc4ccccc4)CC3)cc2)n1` (single isomer, unassigned) [Example 17-69, 3-({4-[(4-benzylpiperidin-1-yl)sulfonyl]phenyl}amino)-1-[(1R,2R or 1S,2S)-2-cyanocyclohexyl]-1H-pyrazole-4-carboxamide], in that order: 30 nM and 67 nM.
For `COC(=O)c1cncc(Nc2nn([C@H]3CCCC[C@@H]3C#N)cc2C(N)=O)c1` (single isomer, unassigned) [Example 17-72, methyl 5-({4-carbamoyl-1-[(1R,2R or 1S,2S)-2-cyanocyclohexyl]-1H-pyrazol-3-yl}amino)pyridine-3-carboxylate], the IC50 in test [1] stood at 12 nM; in test [2], 89 nM.
`N#C[C@H]1CCCC[C@@H]1n1cc(C(N)=O)c(Nc2cnc3c(c2)CNC3=O)n1` (single isomer, unassigned) [Example 17-76, 1-[(1R,2R or 1S,2S)-2-cyanocyclohexyl]-3-[(7-oxo-6,7-dihydro-5H-pyrrolo[3,4-b]pyridin-3-yl)amino]-1H-pyrazole-4-carboxamide]: the values for the 50% inhibitory concentration (IC50) in test [1] and in test [2] were 0.55 nM and 7 nM, respectively.
For `COC(=O)c1ncc(Nc2nn([C@H]3CCCC[C@@H]3C#N)cc2C(N)=O)cc1C` (single isomer, unassigned) [Example 17-78, methyl 5-({4-carbamoyl-1-[(1R,2R or 1S,2S)-2-cyanocyclohexyl]-1H-pyrazol-3-yl}amino)-3-methylpyridine-2-carboxylate], the IC50 in test [1] was found to be 6 nM; in test [2], 17 nM.
For `N#Cc1ncc(Nc2nn([C@H]3CCCC[C@@H]3C#N)cc2C(N)=O)cc1F` (single isomer, unassigned) [Example 17-79, 1-[(1R,2R or 1S,2S)-2-cyanocyclohexyl]-3-[(6-cyano-5-fluoropyridin-3-yl)amino]-1H-pyrazole-4-carboxamide], in that order: 7 nM and 40 nM.
For `N#C[C@H]1CCCC[C@@H]1n1cc(C(N)=O)c(Nc2ccc(C3CC3)nc2)n1` (single isomer, unassigned) [Example 17-80, 1-[(1R,2R or 1S,2S)-2-cyanocyclohexyl]-3-[(6-cyclopropylpyridin-3-yl)amino]-1H-pyrazole-4-carboxamide], in that order: 12 nM and 26 nM.
For `N#C[C@H]1CCCC[C@@H]1n1cc(C(N)=O)c(Nc2ccc(S(=O)(=O)Nc3ccncc3)cc2)n1` (single isomer, unassigned) [Example 17-81, 1-[(1R,2R or 1S,2S)-2-cyanocyclohexyl]-3-{[4-(pyridin-4-ylsulfamoyl)phenyl]amino}-1H-pyrazole-4-carboxamide], in that order: 0.35 nM and 2 nM.

Source of the values: patent US8962608B2, “Cycloalkylnitrile pyrazole carboxamides as janus kinase inhibitors” (Merck Sharp & Dohme Corp., priority 2011, dated 2015).
